Experimental findings from ChEMBL document CHEMBL3603774, “Novel 5-functionalized-pyrazoles: Synthesis, characterization and pharmacological screening” (Bioorg Med Chem Lett, 2015) are described below.

What is called MIC is the smallest concentration in the dilution series that meets the test's criterion for growth inhibition. One may read the MBC as the lowest tested concentration that kills the bacteria rather than only halting them. By IC50 is commonly meant the concentration at which inhibition is half-maximal. High values mean lower potency, low ones higher potency. By MFC is commonly meant the lowest tested concentration that kills the fungus rather than only halting it.

The test system of assay [1] is Klebsiella pneumoniae. Description: Antibacterial activity against Klebsiella pneumoniae MTCC 3384 at 100 ug/ml after 24 hrs by disc diffusion method. In kind it is functional. The conditions noted are these: MTCC 3384, 24 h, read-out: IZ. (In general: Agar diffusion results depend on both activity and mobility in agar.)
Assay [2] deals with Staphylococcus aureus. Description: Antibacterial activity against Staphylococcus aureus MTCC 96 at 50 ug/ml after 24 hrs by disc diffusion method. In kind it is functional. The conditions noted are these: MTCC 96, 24 h, read-out: IZ.
The test system of assay [3] is Bacillus cereus. Description: Antibacterial activity against Bacillus cereus MTCC 8372 at 50 ug/ml after 24 hrs by disc diffusion method. As to conditions: MTCC 8372, 24 h, read-out: IZ. In kind it is functional.
Assay [4] concerns Staphylococcus aureus. Description: Antibacterial activity against Staphylococcus aureus MTCC 96 at 100 ug/ml after 24 hrs by disc diffusion method. It is filed as functional. The conditions noted are these: MTCC 96, 24 h, read-out: IZ.
In assay [5] the test system is Escherichia coli. Description: Antibacterial activity against Escherichia coli MTCC 724 after 24 hrs by microdilution method. In kind it is functional. The conditions noted are these: MTCC 724, 24 h. For orientation: Broth dilution looks for growth in wells or tubes with falling amounts of substance.
Assay [6] has as its system Staphylococcus aureus. Description: Antibacterial activity against Staphylococcus aureus MTCC 96 after 24 hrs by microdilution method. In kind it is functional. As to conditions: MTCC 96, 24 h.
Assay [7] relates to Klebsiella pneumoniae. Description: Antibacterial activity against Klebsiella pneumoniae MTCC 3384 assessed as concentration required to completely destroy test microorganisms after 24 hrs. In kind it is functional. The conditions noted are these: MTCC 3384, 24 h.
Assay [8] relates to Bacillus cereus. Description: Antibacterial activity against Bacillus cereus MTCC 8372 assessed as concentration required to completely destroy test microorganisms after 24 hrs. In kind it is functional. As to conditions: MTCC 8372, 24 h.
Assay [9] has as its system Escherichia coli. Description: Antibacterial activity against Escherichia coli MTCC 724 at 50 ug/ml after 24 hrs by disc diffusion method. In kind it is functional. As to conditions: MTCC 724, 24 h, read-out: IZ.
In assay [10] the test system is Klebsiella pneumoniae. Description: Antibacterial activity against Klebsiella pneumoniae MTCC 3384 after 24 hrs by microdilution method. The conditions noted are these: MTCC 3384, 24 h. It is filed as functional.
Assay [11] concerns Escherichia coli. Description: Antibacterial activity against Escherichia coli MTCC 724 at 100 ug/ml after 24 hrs by disc diffusion method. In kind it is functional. As to conditions: MTCC 724, 24 h, read-out: IZ.
Assay [12] deals with Escherichia coli. Description: Antibacterial activity against Escherichia coli MTCC 724 assessed as concentration required to completely destroy test microorganisms after 24 hrs. In kind it is functional. The conditions noted are these: MTCC 724, 24 h.
Assay [13] concerns Staphylococcus aureus. Description: Antibacterial activity against Staphylococcus aureus MTCC 96 assessed as concentration required to completely destroy test microorganisms after 24 hrs. In kind it is functional. As to conditions: MTCC 96, 24 h.
For assay [14], the system named is Bacillus cereus. Description: Antibacterial activity against Bacillus cereus MTCC 8372 after 24 hrs by microdilution method. It is filed as functional. As to conditions: MTCC 8372, 24 h.
Assay [15] relates to Klebsiella pneumoniae. Description: Antibacterial activity against Klebsiella pneumoniae MTCC 3384 at 50 ug/ml after 24 hrs by disc diffusion method. It is filed as functional. As to conditions: MTCC 3384, 24 h, read-out: IZ.
The subject of assay [16] is Bacillus cereus. Description: Antibacterial activity against Bacillus cereus MTCC 8372 at 100 ug/ml after 24 hrs by disc diffusion method. The conditions noted are these: MTCC 8372, 24 h, read-out: IZ. In kind it is functional.
Assay [17] deals with Aspergillus flavus. Description: Antifungal activity against Aspergillus flavus MTCC 873 at 100 ug/ml after 24 hrs by disc diffusion method. In kind it is functional. The conditions noted are these: for zone of inhibition at 100 µg/mL: MTCC 873, 24 h, read-out: IZ.
For assay [18], the system named is Aspergillus flavus. Description: Antifungal activity against Aspergillus flavus MTCC 873 after 48 hrs by microdilution method. It is filed as functional.
Assay [19] relates to Aspergillus niger. Description: Antifungal activity against Aspergillus niger MTCC 281 after 48 hrs by microdilution method. In kind it is functional.
A short description of assay [20]: Inhibition of alpha-glucosidase (unknown origin) using p-nitrophenol glycoside as substrate after 30 mins by colorimetric analysis. Also on record: species or system Homo sapiens.
The next assay deals with T1, Alpha amylase (Homo sapiens, UniProt P0DUB6).
T1 sequence (P0DUB6 whole entry): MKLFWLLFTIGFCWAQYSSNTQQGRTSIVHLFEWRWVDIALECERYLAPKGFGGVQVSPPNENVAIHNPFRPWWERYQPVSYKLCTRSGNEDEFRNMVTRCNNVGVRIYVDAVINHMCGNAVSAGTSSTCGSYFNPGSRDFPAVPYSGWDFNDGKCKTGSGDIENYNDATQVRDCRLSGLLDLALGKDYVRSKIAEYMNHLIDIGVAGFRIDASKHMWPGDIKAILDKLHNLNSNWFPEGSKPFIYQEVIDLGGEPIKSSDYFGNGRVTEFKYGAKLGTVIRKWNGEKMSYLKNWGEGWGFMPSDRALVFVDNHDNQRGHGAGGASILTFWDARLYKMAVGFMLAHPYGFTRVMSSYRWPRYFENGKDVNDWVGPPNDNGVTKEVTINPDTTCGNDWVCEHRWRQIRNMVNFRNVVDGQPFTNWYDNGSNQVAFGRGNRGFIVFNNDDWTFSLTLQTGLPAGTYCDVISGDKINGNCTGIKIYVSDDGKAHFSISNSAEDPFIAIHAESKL
Description: Inhibition of alpha-amylase (unknown origin) using starch as substrate after 30 mins by spectrophotometer analysis.

The test system of assay [21] is Aspergillus niger. Description: Antifungal activity against Aspergillus niger MTCC 281 at 100 ug/ml after 24 hrs by disc diffusion method. As to conditions: MTCC 281, 24 h, read-out: IZ. It is filed as functional.
For assay [22], the system named is Aspergillus niger. Description: Antifungal activity against Aspergillus niger MTCC 281 assessed as concentration required to completely destroy test microorganisms after 24 hrs. It is filed as functional.
For assay [23], the system named is Aspergillus flavus. Description: Antifungal activity against Aspergillus flavus MTCC 873 at 50 ug/ml after 24 hrs by disc diffusion method. In kind it is functional. As to conditions: for zone of inhibition at 50 µg/mL: MTCC 873, 24 h, read-out: IZ.
Assay [24] has as its system Aspergillus flavus. Description: Antifungal activity against Aspergillus flavus MTCC 873 assessed as concentration required to completely destroy test microorganisms after 24 hrs. In kind it is functional.
Assay [25] has as its system Aspergillus niger. Description: Antifungal activity against Aspergillus niger MTCC 281 at 50 ug/ml after 24 hrs by disc diffusion method. It is filed as functional. The conditions noted are these: MTCC 281, 24 h, read-out: IZ.

Values after ≈ are worked out from the molar mass of the structure shown.

On to `CN(C)[C@@H]1C(O)=C(C(N)=O)C(=O)[C@@]2(O)C(O)=C3C(=O)c4c(O)cccc4[C@@](C)(O)[C@H]3C[C@@H]12` [TETRACYCLINE], for which the zone of inhibition at 100 µg/mL came to 20 mm in the assay on Klebsiella pneumoniae [1], 20 mm in the assay with Staphylococcus aureus [4], 30 mm with Escherichia coli [11] and 22 mm in the assay on Bacillus cereus [16]. The zone of inhibition at 50 µg/mL with Staphylococcus aureus [2] was found to be 10 mm; in the assay on Bacillus cereus [3], 10 mm; in the assay with Escherichia coli [9] it was 18 mm; with Klebsiella pneumoniae [15] it was 12 mm. In addition, the MIC in the assay with Escherichia coli [5] is 12 µg/mL (≈ 27 µM); in the assay with Staphylococcus aureus [6], 10 µg/mL (≈ 22.5 µM); against Klebsiella pneumoniae [10], 8 µg/mL (≈ 18 µM); in the assay with Bacillus cereus [14], 4 µg/mL (≈ 9 µM). Further, the MBC in the assay on Klebsiella pneumoniae [7], in the assay with Bacillus cereus [8], in the assay with Escherichia coli [12] and with Staphylococcus aureus [13] was 120 µg/mL (≈ 270 µM) in each case.
`CCOC(=O)c1c(-c2ccccc2)nn(-c2ccccc2)c1Cn1cnc2ccccc21`: the zone of inhibition at 100 µg/mL stood at 15 mm in the assay with Aspergillus flavus [17]; 10 mm with Klebsiella pneumoniae [1]; 12 mm in the assay on Staphylococcus aureus [4]; 20 mm in the assay with Aspergillus niger [21]; 10 mm in the assay on Escherichia coli [11]; 12 mm in the assay with Bacillus cereus [16]. For the same compound, the MIC was determined as 45 µg/mL (≈ 107 µM) against Aspergillus flavus [18] (MTCC 873, 48 h); 50 µg/mL (≈ 118 µM) against Aspergillus niger [19] (MTCC 281, 48 h); 55 µg/mL (≈ 130 µM) with Escherichia coli [5]; 55 µg/mL (≈ 130 µM) against Staphylococcus aureus [6]; 40 µg/mL (≈ 94.7 µM) in the assay with Klebsiella pneumoniae [10]; 60 µg/mL (≈ 142 µM) with Bacillus cereus [14]. Besides, the zone of inhibition at 50 µg/mL in the assay on Staphylococcus aureus [2] came out at 6 mm; with Bacillus cereus [3], 6 mm; in the assay on Escherichia coli [9] it was 8 mm; in the assay with Aspergillus flavus [23], 12 mm; in the assay on Klebsiella pneumoniae [15], 6 mm; in the assay with Aspergillus niger [25], 25 mm. For the same compound, the IC50 amounted to 30 µg/mL (≈ 71 µM) in assay [20] and 35 µg/mL (≈ 82.8 µM) on Alpha amylase. For the same compound, the minimum bactericidal concentration (MBC) with Klebsiella pneumoniae [7] was 220 µg/mL (≈ 521 µM); in the assay on Bacillus cereus [8], 285 µg/mL (≈ 675 µM); in the assay on Escherichia coli [12], 270 µg/mL (≈ 639 µM); in the assay with Staphylococcus aureus [13] it was 290 µg/mL (≈ 686 µM). Besides, the MFC was 280 µg/mL (≈ 663 µM) in the assay with Aspergillus niger [22] (MTCC 281, 24 h) and 275 µg/mL (≈ 651 µM) in the assay on Aspergillus flavus [24] (MTCC 873, 24 h).
In the case of `CCOC(=O)c1c(-c2ccccc2)nn(-c2ccccc2)c1COCc1c(-c2ccc(F)cc2)nc(N(C)S(C)(=O)=O)nc1C(C)C`, the zone of inhibition at 100 µg/mL in the assay on Aspergillus flavus [17] came out at 6 mm; with Klebsiella pneumoniae [1], 10 mm; in the assay with Staphylococcus aureus [4], 19 mm; in the assay with Aspergillus niger [21], 8 mm; in the assay with Escherichia coli [11], 10 mm; with Bacillus cereus [16], 20 mm. For the same compound, the MIC in the assay with Aspergillus flavus [18] (MTCC 873, 48 h) is 55 µg/mL (≈ 83.6 µM); with Aspergillus niger [19] (MTCC 281, 48 h) it was 50 µg/mL (≈ 76 µM); against Escherichia coli [5], 35 µg/mL (≈ 53.2 µM); against Staphylococcus aureus [6], 40 µg/mL (≈ 60.8 µM); in the assay with Klebsiella pneumoniae [10], 30 µg/mL (≈ 45.6 µM); in the assay with Bacillus cereus [14], 15 µg/mL (≈ 22.8 µM). For the same compound, the zone of inhibition at 50 µg/mL with Staphylococcus aureus [2] is 6 mm; in the assay with Bacillus cereus [3] it was 8 mm; in the assay with Escherichia coli [9], 3 mm; with Aspergillus flavus [23] it was 12 mm; in the assay with Klebsiella pneumoniae [15], 8 mm; in the assay on Aspergillus niger [25], 10 mm. The half-maximal inhibitory concentration (IC50) is 25 µg/mL (≈ 38 µM) in [20] and 15 µg/mL (≈ 22.8 µM) on Alpha amylase. The MBC is 240 µg/mL (≈ 365 µM) in the assay with Klebsiella pneumoniae [7], 150 µg/mL (≈ 228 µM) with Bacillus cereus [8], 280 µg/mL (≈ 426 µM) with Escherichia coli [12] and 190 µg/mL (≈ 289 µM) with Staphylococcus aureus [13]. Besides, the minimum fungicidal concentration (MFC) is 280 µg/mL (≈ 426 µM) with Aspergillus niger [22] (MTCC 281, 24 h) and 300 µg/mL (≈ 456 µM) with Aspergillus flavus [24] (MTCC 873, 24 h).
As to NYSTATIN, the results for the inhibition zone (IZ) in the assay on Aspergillus flavus [17] and with Aspergillus flavus [23] were 20 mm and 16 mm, respectively. For the same compound, the MIC against Aspergillus flavus [18] is 8 µg/mL; with Aspergillus niger [19], 10 µg/mL. Further, the MFC in the assay with Aspergillus niger [22] and in the assay with Aspergillus flavus [24] was 100 µg/mL throughout.
